Laboratory results taken from patent US20240041898A9, “NEUROSTEROIDS AND ENANTIOMERS THEREOF FOR THE PREVENTION AND TREATMENT OF NEURODEGENERATIVE CONDITIONS” (priority 2019, published 2024).
Several values for one entry are separate records, joined by “and”; a condition that tells them apart may be missing. Equal entries are not always repeated.

What was measured:
TUNEL-positive RGCs = test: Rat in vivo OHT model, TUNEL staining; settings: OHT eyes, intravitreal, three weeks after bead injection; single values
Method: Example 7. Rat in vivo OHT model induced by intracameral injection of microbeads—For induction of ocular hypertension (OHT) in vivo, sterile 6 μm polystyrene microbeads were injected into the anterior chamber of the left eye of each animal using a single-step, sclero-corneal tunnel approach with a 35G nanoneedle (FIG. 4A). […] After stabilization of elevated IOP, animals were randomly divided into 3 groups (non-treated OHT, AlloP injection, and ent-AlloP injection). AlloP and ent-AlloP were administered as a one-time intravitreal injection one week following bead injection. Non-treated OHT animals received sterile vehicle intravitreally. […]
Apoptosis—To visualize apoptotic cells, a DeadEnd™ Colorimetric TUNEL (TdT-mediated dUTP Nick-End Labeling) System (Promega, Madison, WI) was used according to the manufacturer's instructions. […] After the length of each retinal section was measured (Image-Pro Plus software), the cells were counted in the whole section length and the number of cells was normalized per 200 μm of retinal section. The number of apoptotic cells was evaluated by Dunnett's multiple comparison test to determine changes in the density of apoptotic cells among experimental retinas treated with 1 μM AlloP or 1 μM ent-AlloP at 75 mmHg and control retinas incubated with aCSF at 75 mmHg. […]

[1] = tested on: NFL and optic nerves (ON); test: Rat in vivo OHT model, electron microscopy of AP and DAV in NFL and optic nerve; settings: in vivo OHT eyes; for Autophagosomes (AP) in the NFL (FIG. 5M), Total / Degenerative autophagic vacuoles (DAV) in the NFL (FIG. 5N), Total: Total of 10 areas; for Autophagosomes (AP)/25 μm2 in the NFL (FIG. 5M), individual areas 1-10 / Degenerative autophagic vacuoles (DAV)/25 μm2 in the NFL (FIG. 5N), individual areas 1-10 / Autophagosomes (AP)/100 μm2 in the ON (FIG. 5Y), individual areas 1-10 / Degenerative autophagic vacuoles (DAV)/100 μm2 in the ON (FIG. 5Z), individual areas 1-10: single values
Method: Example 7. Rat in vivo OHT model induced by intracameral injection of microbeads—For induction of ocular hypertension (OHT) in vivo, sterile 6 μm polystyrene microbeads were injected into the anterior chamber of the left eye of each animal using a single-step, sclero-corneal tunnel approach with a 35G nanoneedle (FIG. 4A). […] After stabilization of elevated IOP, animals were randomly divided into 3 groups (non-treated OHT, AlloP injection, and ent-AlloP injection). AlloP and ent-AlloP were administered as a one-time intravitreal injection one week following bead injection. Non-treated OHT animals received sterile vehicle intravitreally. As a further control, vehicle was intravitreally injected 7 days after intracameral administration of 10 μl of PBS. Three weeks after bead injections, IOP was 26.7±3.7 mmHg in non-treated OHT eyes compared to 9.9±0.9 mmHg in control eyes.
Rat in vivo OHT model—8-week old male Sprague-Dawley rats were deeply anesthetized with an intraperitoneal injection of a mixture of medetomidine hydrochloride (Cat #133-17474, CAS. No 86347-15-1, Wako Pure Chemical Industries Ltd., Osaka, Japan, 0.15 mg/kg), midazolam (Cat #135-13791, CAS. No 58786-99-5, Wako Pure Chemical Industries Ltd., 2 mg/kg), and butorphanol tartrate (Cat #021-19001, CAS. No […], Wako Pure Chemical Industries Ltd., 2.5 mg/kg), and intraocular pressure was increased unilaterally to approximately 35 mmHg, by intracameral injection of polystyrene microbeads using a single-step, sclero-corneal tunnel approach with a 35G-gauge nanoneedle (#LNAN-3505LM, Saito Medical Instruments Inc., Tokyo, Japan) connected to 100 μl WPI Nanofil 100 microsyringe (World Precision Instruments, Inc., Sarasota, FL). Sterile 6 μm polystyrene microbeads in a 1×10^6 microbeads/ml solution (Molecular Probes, Eugene, OR, USA) were concentrated to obtain a 1×10^7 microbeads/ml solution. This solution was suspended in PBS. The microbeads suspended in PBS were aspirated into a 100 μl Hamilton microsyringe and injected into the anterior chamber of […] of each animal. 10 μl of the microbead suspension were injected without contacting the cornea or iris with the needle. After stabilization of the elevated IOP, animals were randomly divided into 3 groups (non-treated OHT, AlloP injection, and ent-AlloP injection). AlloP and ent-AlloP were dissolved in 20% w/v (2-Hydroxypropyl)-β-cyclodextrin (2HBCD) in saline solution at concentration of 0.05% (w/v) solution, and injected into the vitreous chamber in a total volume of 1 μl using a Hamilton syringe adapted with a 35 G-gauge nanoneedle 1 week after the beads were injected under halothane inhalation anesthesia. OHT animals (vehicle control) received sterile 1 μl 20% (w/v) 2HBCD with PBS. As a further control, 1 μl 20% (w/v) 2HBCD was intravitreally injected 7 days after intracameral injection with 10 μl of PBS. The number of animals used in each experiment is indicated in the corresponding method. […] Ocular hypertension was monitored preoperatively, and at 3 days, 1 week, 2 weeks or 3 weeks after the beads were injected. IOP was measured using a laboratory tonometer (TonoLab, Icare, Finland).
Electron Microscopy—Retinal specimens were trimmed to a smaller size, and ultrathin sections (75 nm) were cut with a diamond knife and suspended over formvar-coated slot grids (1×2 mm opening). The sections were stained with uranyl acetate and lead citrate and viewed in a transmission electron microscope (H-7650, Hitachi High-Technologies Corp., Tokyo, Japan). Numbers of AP and DAV inside NFLs and axons were determined as the sum in 10 different areas of 25 μm^2 each from each sample. The analysis was performed in three eyes per experimental condition.

GABAA receptors = settings: cited from earlier work

Row | SMILES | TUNEL staining (FIG. 4I), number of TUNEL-positive RGCs, individual 1-5 (TUNEL-positive RGCs) | Autophagosomes (AP) in the NFL (FIG. 5M), Total ([1]; intravitreal) | Degenerative autophagic vacuoles (DAV) in the NFL (FIG. 5N), Total ([1]; intravitreal) | Autophagosomes (AP)/25 μm2 in the NFL (FIG. 5M), individual areas 1-10 ([1]; intravitreal) | Degenerative autophagic vacuoles (DAV)/25 μm2 in the NFL (FIG. 5N), individual areas 1-10 ([1]; intravitreal) | Autophagosomes (AP)/100 μm2 in the ON (FIG. 5Y), individual areas 1-10 ([1]; optic nerve) | Degenerative autophagic vacuoles (DAV)/100 μm2 in the ON (FIG. 5Z), individual areas 1-10 ([1]; optic nerve) | action on GABAA receptors (GABAA receptors) | Degenerative autophagic vacuoles (DAV)/25 μm2 in the NFL (FIG. 5N), Average ([1]; intravitreal, Average of 10) | Autophagosomes (AP)/100 μm2 in the ON (FIG. 5Y), Average ([1]; optic nerve, Average of 10) | Degenerative autophagic vacuoles (DAV)/100 μm2 in the ON (FIG. 5Z), Average ([1]; optic nerve, Average of 10)
1 | CC(=O)[C@@H]1CC[C@@H]2[C@H]3CC[C@@H]4C[C@@H](O)CC[C@@]4(C)[C@@H]3CC[C@]21C [ent-AlloP, ent-allopregnanolone] | 1 per 200 μm of retinal sections (2×) and 0 per 200 μm of retinal sections (3×) | 1 | 22 | 0 /25 μm2 (9×) and 1 /25 μm2 | 1 /25 μm2 and 2 /25 μm2 (5×) and 4 /25 μm2 (2×) and 3 /25 μm2 and 0 /25 μm2 | 0 /100 μm2 (9×) and 1 /100 μm2 | 0 /100 μm2 and 1 /100 μm2 (8×) and 2 /100 μm2 | weak actions | – | – | –
2 | CC(=O)[C@H]1CC[C@H]2[C@@H]3CC[C@H]4C[C@H](O)CC[C@]4(C)[C@H]3CC[C@]12C [AlloP, allopregnanolone] | 1 per 200 μm of retinal sections (2×) and 0 per 200 μm of retinal sections (3×) | 12 | 5 | 2 /25 μm2 (2×) and 1 /25 μm2 (8×) | 0 /25 μm2 (7×) and 2 /25 μm2 (2×) and 1 /25 μm2 | 1 /100 μm2 (9×) and 2 /100 μm2 | 0 /100 μm2 | strong enhancer | 0.5 /25 μm2 | 1.1 /100 μm2 | 0.0 /100 μm2
